In patent US20240398868A1 (GEL4MED, INC., priority 2020, published 2024) one finds net charge data, which are given here for one substance.

This data set in a line: Net charge and isoelectric point of peptide. In kind it is physicochemical. As to conditions: pH 7. The text has this: The peptide may be purified. For example, the peptide may be lyophilized. […] Other peptides are within the scope of the disclosure.
Exemplary peptides having a charge of +5 to +9 include […](d)[…], […](d)[…], and […](d)[…]. In other embodiments, the purified peptide may be substantially neutral. […] Net charge may be selected by peptide design. Design of electrostatic charge in the peptide hydrogel may allow control of charge interaction with cell membrane and proteins.

Regarding VEVSVSVEV(d)PPTEVSVEVEV, the net charge entry is “net negative charge”.
